Structures can show the parent of a compound that is named as a salt.
Molecular target: T1, murine MCHR (Mus musculus, UniProt Q8JZL2)
T1 construct: expressed in transfected cells; host or cells: HEK293
Assay: Assay for release of intracellular calcium (FLIPR, Fluo-4), inhibition of MCH-induced Ca++ flux
Assay type: cell-based
Settings: test compound at a dose of 10 μM, HEK293 cells expressing the murine MCHR, read-out: inhibition of MCH (MCH induced Ca++ flux / fluorescence)
Procedure: Assay for Release of Intracellular Calcium
Activation of the melanin concentrating hormone receptor (MCHR) by MCH induces the release of Ca^++ from intracellular stores. This intracellular calcium release is measured using a fluorometric imaging plate reader (FLIPR™, Molecular Devices Corp.) in conjunction with the Ca^++-sensitive dye Fluo-4. Release of Ca^++ from intracellular stores causes an increase in fluorescence of the dye that is proportional to Ca^++ concentration. Briefly, the assays are performed as follows. HEK293 cells expressing the murine MCHR are plated overnight at 50,000 cells/well in 96-well plates. The following day, culture medium is removed and replaced with 100 μl/well of D-PBS (+glucose and sodium pyruvate) containing 2.5 μM Fluo-4AM (Molecular Probes), 0.01% Pluronic F-127 and 2.5 mM probenecid. Cells are loaded with the Fluo-4 dye for at least one hour at room temp. After loading, the cells are washed gently to remove extracellular dye and 100 μl of D-PBS (+glucose and sodium pyruvate) is added to each well. Test compounds are prepared at 40 μM in 4% DMSO. The cell plate is placed in the FLIPR™ and 50 μl/well of test compound is delivered. The calcium signal is followed for 3 minutes to assay for potential agonist activity by the test compounds. Then 50 μl/well of 12 nM mouse MCH (in D-PBS containing 0.1% BSA) is added and the ligand-induced calcium signal is followed for an additional 3 minutes. Antagonist activity as determined by the test compounds ability to inhibit MCH induced Ca^++ flux is calculated as % inhibition as described by the following formula: % inhibition=[1−((fTC−fB)÷(fMCH−fB))]×100, where fTC=MCH-induced fluorescence in the presence of test compound; fMCH=MCH-induced fluorescence in the absence of test compound; and fB=Baseline fluorescence.
MCH (3 nM) usually elicits a response of 30,000-40,000 relative fluorescence units (RFU) with a baseline of about 1000 RFU. Fluo-4 fluorescence is measured at 488 nm, with an exposure of 0.40 sec. and F-stop=2.0 and the laser set at 0.40-0.60 W constant light output.

T1 sequence (Q8JZL2 whole entry): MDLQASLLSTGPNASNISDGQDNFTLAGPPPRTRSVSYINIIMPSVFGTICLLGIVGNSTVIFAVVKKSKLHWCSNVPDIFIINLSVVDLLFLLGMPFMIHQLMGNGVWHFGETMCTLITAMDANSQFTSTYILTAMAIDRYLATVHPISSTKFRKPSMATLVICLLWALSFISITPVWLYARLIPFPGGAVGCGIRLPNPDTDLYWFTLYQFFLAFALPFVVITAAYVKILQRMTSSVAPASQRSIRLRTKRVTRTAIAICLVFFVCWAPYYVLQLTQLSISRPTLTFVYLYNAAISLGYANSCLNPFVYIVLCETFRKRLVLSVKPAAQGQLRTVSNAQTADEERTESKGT

| SMILES | inhibition at 10 µM |
| --- | --- |
| COc1ccc2c(c1)c(NC1CCN(Cc3ccc4c(c3)OCO4)CC1)cc(=O)n2C [Compound V-8, 4-(1-Benzo[1,3]dioxol-5-ylmethyl-piperidin-4-ylamino)-6-methoxy-1-methyl-1H-quinolin 2-one] | ≥ 50% |
| CN(C)C(=O)c1c(NC2CCN(Cc3ccc4ccccc4c3)CC2)c2cc(Cl)ccc2n(C)c1=O [Compound V-24, 6-Chloro-1-methyl-4-(1-naphthalen-2-ylmethyl-piperidin-4-ylamino)-2-oxo-1,2-dihydro-quinoline-3-carboxylic acid dimethylamide] | ≥ 50% |
| CCc1ccc2c(c1)c(NC1CCN(Cc3ccc4occc4c3)CC1)cc(=O)n2C [Compound V-25, 4-(1-Benzofuran-5-ylmethyl-piperidin-4-ylamino)-6-ethyl-1-methyl-1H-quinolin-2-one] | ≥ 50% |
| Cn1c(=O)cc(NC2CCN(Cc3ccc4c(c3)OCO4)CC2)c2cc(C(F)(F)F)ccc21 [Compound V-31, 4-(1-Benzo[1,3]dioxol-5-ylmethyl-piperidin-4-ylamino)-1-methyl-6-trifluoromethyl-1H-quinolin-2-one] | ≥ 50% |
| O=c1cc(NC2CCN(Cc3ccc4c(c3)OCO4)CC2)c2cc(Cl)ccc2n1Cc1ccccc1 [Compound V-3, 4-(1-Benzo[1,3]dioxol-5-ylmethyl-piperidin-4-ylamino)-1-benzyl-6-chloro-1H-quinolin-2-one] | ≥ 50% |
| O=c1cc(NC2CC3CCC(C2)N3Cc2ccc3c(c2)OCO3)c2cc(Cl)ccc2n1CC(F)(F)F (centres unmarked) [Compound V-57] | ≥ 50% |
| Cc1ccc2c(c1)c(NC1CCN(C/C=C/c3ccccc3)CC1)cc(=O)n2C [Compound V-38, 1,6-Dimethyl-4-[1-(3-phenyl-allyl)-piperidin-4-ylamino]-1H-quinolin-2-one] | ≥ 50% |
| Cn1c(=O)cc(NC2CCN(C/C=C/c3ccccc3)CC2)c2cc(Cl)ccc21 [Compound V-29, 6-Chloro-1-methyl-4-[1-(3-phenyl-allyl)-piperidin-4-ylamino]-1H-quinolin-2-one] | ≥ 50% |
| O=c1cc(NC2CCN(Cc3ccc4c(c3)OCO4)CC2)c2cc(Cl)ccc2n1Cc1ccncc1 [Compound V-4, 4-(1-Benzo[1,3]dioxol-5-ylmethylpiperidin-4-ylamino)-6-chloro-1-pyridin-4-ylmethyl-1H-quinolin-2-one] | ≥ 50% |
| CCc1ccc2c(c1)c(NC1CCN(Cc3ccc4c(c3)OCO4)CC1)cc(=O)n2C [Compound V-13, 4-(1-Benzo[1,3]dioxol-5-ylmethyl-piperidin-4-ylamino)-6-ethyl-1-methyl-1H-quinolin-2-one] | ≥ 50% |
| COc1ccc2c(c1)c(NC1CCN(Cc3ccc4ccccc4c3)CC1)cc(=O)n2C [Compound V-9, 6-Methoxy-1-methyl-4-(1-naphthalen-2-ylmethyl-piperidin-4-ylamino)-1H-quinolin-2-one] | ≥ 50% |
| CCn1c(=O)cc(NC2CCN(Cc3ccc4ccccc4c3)CC2)c2cc(Cl)ccc21 [Compound V-6, 6-Chloro-1-ethyl-4-(1-naphthalen-2-ylmethyl-piperidin-4-ylamino)-1H-quinolin-2-one] | ≥ 50% |

Further lines, results first:

| inhibition at 10 µM | SMILES |
| --- | --- |
| ≥ 50% | O=c1cc(NC2CCN(Cc3ccc4cc[nH]c4c3)CC2)c2cc(Cl)ccc2o1 [II-31, 6-Chloro-4-[1-(1H-indol-6-ylmethyl)-piperidin-4-ylamino]-chromen-2-one] |
| ≥ 50% | O=c1cc(NC2CCN(Cc3ccc4c(c3)OCO4)CC2)c2cc(Cl)cc(Br)c2o1 [II-41, 4-(1-Benzo[1,3]dioxol-5-ylmethyl-piperidin-4-ylamino)-8-bromo-6-chloro-chromen-2-one] |
| ≥ 50% | O=c1cc(NC2CCN(Cc3ccc4c(c3)OCO4)CC2)c2cc(OC(F)(F)F)ccc2o1 [II-96, 4-(1-Benzo[1,3]dioxol-5ylmethyl-piperidin-4-ylamino)-6-trifluoromethoxy-chromen-2-one] |
| ≥ 50% | CCOc1cccc(CN2CCC(Nc3cc(=O)oc4ccc(OC)cc34)CC2)c1 [II-97, 4-[1-(3-Ethoxy-benzyl)-piperidin-4-ylamino]-6-methoxy-chromen-2-one trifluoroacetate] |
| ≥ 50% | O=c1cc(NC2CCN(Cc3ccc4ccccc4c3)CC2)c2cc(Cl)ccc2o1 [II-2, 6—Chloro-4-(1-naphthalen-2-ylmethyl-piperidin-4-ylamino)-chromen-2-one] |
| ≥ 50% | C=Cc1ccc2oc(=O)cc(NC3CCN(Cc4ccc(C)c(C)c4)CC3)c2c1 [II-46, 4-{1-(3,4-Dimethyl-benzyl)-piperidin-4-ylamino}-6-vinyl-chromen-2-one] |
| ≥ 50% | COc1ccc2oc(=O)cc(NC3CCN(Cc4ccccc4)CC3)c2c1 [II-102, 4-(1-Benzyl-piperidin-4-ylamino)-6-methoxy-chromen-2-one trifluoroacetate] |
| ≥ 50% | CCc1ccc2oc(=O)cc(NC3CCN(Cc4ccc5c(c4)OCO5)CC3)c2c1 [II-63, 4-(1-Benzo{1,3}dioxol-5-ylmethyl-piperidin-4-ylamino)-6-ethyl-chromen-2-one] |
| ≥ 50% | NC(=O)c1cccc(CN2CCC(Nc3cc(=O)oc4ccc(Cl)cc34)CC2)c1 [II-99, 3-[4-(6-Chloro-2-oxo-2H-chromen-4-ylamino)-piperidin-1-ylmethyl]-benzamide] |
| ≥ 50% | COc1ccc2oc(=O)cc(NC3CCN(Cc4cccc5sccc45)CC3)c2c1 [II-101, 4-{[1-(1-benzothien-4-ylmethyl)piperidin-4-yl]amino}-6-methoxy-2H-chromen-2-one] |
| ≥ 50% | CC(c1ccc2ncccc2c1)N1CCC(Nc2cc(=O)oc3ccc(Cl)cc23)CC1 (racemic) [II-106, 6-Chloro-4-[1-(1-quinolin-6-yl-ethyl)-piperidin-4-ylamino]-chromen-2-one] |
| ≥ 50% | COc1ccc2oc(=O)cc(NC3CCN(Cc4ccc(Br)cc4)CC3)c2c1 [II-65, 4-[1-(4-Bromo-benzyl)-piperidin-4-ylamino]-6-methoxy-chromen-2-one trifluoroacetate] |
| ≥ 50% | O=c1cc(NC2CCN(Cc3ccc4c(c3)OCO4)CC2)c2cc(OC(F)F)ccc2o1 [II-125, 4-(1-Benzo[1,3]dioxol-5-ylmethyl-piperidin-4-ylamino)-6-difluoromethoxy-chromen-2-one] |
| ≥ 50% | O=c1cc(NC2CCN(C/C=C/c3ccccc3)CC2)c2cc(Cl)ccc2o1 [III-3, 6-Chloro-4-[1-(3-phenyl-allyl)-piperidin-4-ylamino]-chromen-2-one] |
| ≥ 50% | COc1ccc2oc(=O)cc(NC3CCN(Cc4ccc(OC)c(F)c4)CC3)c2c1 [II-70, 4-[1-(3-Fluoro-4-methoxy-benzyl)-piperidin-4-ylamino]-6-methoxy-chromen-2-one trifluoroacetate] |
| ≥ 50% | N#Cc1ccc2oc(=O)cc(NC3CCN(Cc4ccc5occc5c4)CC3)c2c1 [II-114, 4-(1-Benzofuran-5-ylmethyl-piperidin-4-ylamino)-2-oxo-2H-chromene-6-carbonitrile] |
| ≥ 50% | CCn1ccc2cc(CN3CCC(Nc4cc(=O)oc5ccc(OC)cc45)CC3)ccc21 [II-33, 6-Methoxy-4-[N-ethylindole-5-ylmethyl-piperidin-4-ylamino]-chromen-2-one] |
| ≥ 50% | Cc1ccc2oc(=O)cc(NC3CCN(Cc4ccc5c(c4)OCO5)CC3)c2c1 [II-3, 4-(1-Benzo[1,3]dioxol-5-ylmethyl-piperidin-4-ylamino)-6-methyl-chromen-2-one] |
| ≥ 50% | N#Cc1ccc2oc(=O)cc(NC3CCN(Cc4ccc5c(c4)OCO5)CC3)c2c1 [II-75, 4-(1-Benzo[1,3]dioxol-5-ylmethyl-piperidin-4-ylamino)-2-oxo-2H-chromene-6-carbonitrile] |
| ≥ 50% | COc1ccccc1/C=C/CN1CCC(Nc2cc(=O)oc3ccc(C)cc23)CC1 [III-19, 4-{1-[3-(2-Methoxy-phenyl)-allyl]-piperidin-4-ylamino}-6-methyl-chromen-2-one] |
| ≥ 50% | COc1ccc2oc(=O)cc(NC3CCN(Cc4ccc5[nH]ccc5c4)CC3)c2c1 [II-54, 4-[1-(1H-Indol-5-ylmethyl)-piperidin-4-ylamino]-6-methoxy-chromen-2-one] |
| ≥ 50% | O=c1cc(NC2CCN(Cc3ccc4c(c3)OCO4)CC2)c2cc(Cl)c(Cl)cc2o1 [II-117, (4-Benzo[1,3]dioxol-5-ylmethyl-piperidin-4-ylamino)-6,7-dichloro-chromen-2-one] |
| ≥ 50% | O=c1cc(NC2CCN(Cc3ccc4c(c3)OCO4)CC2)c2cc(C(F)(F)F)ccc2o1 [II-82, 4-(1-Benzo[1,3]dioxol-5-ylmethyl-piperidin-4-ylamino)-6-trifluoromethyl-chromen-2-one] |

Reference: patent US6921821B2, “Antagonists of melanin concentrating hormone receptor” (Abbott Laboratories, priority 2002, dated 2005)
